Our source for the Activity values is ChEMBL document CHEMBL5247626, “In vitro and in vivo biological evaluation of newly synthesized multi-target 20(R)-panaxadiol derivatives for treating Alzheimer's disease” (Eur J Med Chem, 2022).

Molecules are shown by their SMILES.

This assay deals with PC-12. Put plainly: Neuroprotective activity against rat PC12 cells assessed as reduction in amyloid beta (25 to 35)-induced cytotoxicity at 15 uM incubated for 4 hrs followed by amyloid beta (25 to 35) treatment for 24 hrs by MTT assay relative to control. Format: functional. Set-up: scale not given: the % may be the effect or the level left. Particulars: time 28 hrs. For orientation: Tetrazolium dyes change colour on reduction, which living cells bring about.
On to `CC1(C)CCC[C@](C)([C@H]2CC[C@]3(C)[C@@H]2[C@H](O)C[C@@H]2[C@@]4(C)CC[C@H](OC(=O)/C=C/c5ccco5)C(C)(C)[C@@H]4CC[C@]23C)O1`, for which the Activity came out at 40.56%.

With `CCCCCCCNC(=O)O[C@H]1CC[C@]2(C)[C@H]3C[C@@H](O)[C@@H]4[C@@H]([C@@]5(C)CCCC(C)(C)O5)CC[C@@]4(C)[C@]3(C)CC[C@H]2C1(C)C`, the Activity came out at 59.9%.

Take `CCCNC(=O)O[C@H]1CC[C@]2(C)[C@H]3C[C@@H](O)[C@@H]4[C@@H]([C@@]5(C)CCCC(C)(C)O5)CC[C@@]4(C)[C@]3(C)CC[C@H]2C1(C)C`: the Activity stood at 65.9%.

Take `CC1(C)CCC[C@](C)([C@H]2CC[C@]3(C)[C@@H]2[C@H](O)C[C@@H]2[C@@]4(C)CC[C@H](OC(=O)c5cn(-c6ccccc6)nn5)C(C)(C)[C@@H]4CC[C@]23C)O1`: the Activity worked out at 25.49%.

For the molecule `CC1(C)CCC[C@](C)([C@H]2CC[C@]3(C)[C@@H]2[C@H](O)C[C@@H]2[C@@]4(C)CC[C@H](OC(=O)Nc5ccccc5)C(C)(C)[C@@H]4CC[C@]23C)O1`, the Activity was 71.32%.

As to `COc1cc(/C=C/C(=O)O[C@H]2CC[C@]3(C)[C@H]4C[C@@H](O)[C@@H]5[C@@H]([C@@]6(C)CCCC(C)(C)O6)CC[C@@]5(C)[C@]4(C)CC[C@H]3C2(C)C)ccc1O`, the Activity came out at 55.55%.

With `CC1(C)CCC[C@](C)([C@H]2CC[C@]3(C)[C@@H]2[C@H](O)C[C@@H]2[C@@]4(C)CC[C@H](OC(=O)Nc5ccc(Cl)cc5)C(C)(C)[C@@H]4CC[C@]23C)O1`, the Activity is 64.16%.

For the molecule `CCCCCCNC(=O)O[C@H]1CC[C@]2(C)[C@H]3C[C@@H](O)[C@@H]4[C@@H]([C@@]5(C)CCCC(C)(C)O5)CC[C@@]4(C)[C@]3(C)CC[C@H]2C1(C)C`, the Activity is listed as 50.09%.

On to `CC1(C)CCC[C@](C)([C@H]2CC[C@]3(C)[C@@H]2[C@H](O)C[C@@H]2[C@@]4(C)CC[C@H](OP(=O)(Oc5ccc(F)cc5)Oc5ccc(F)cc5)C(C)(C)[C@@H]4CC[C@]23C)O1`, for which the Activity was determined as 48.68%.

In the case of `CC1(C)CCC[C@](C)([C@H]2CC[C@]3(C)[C@@H]2[C@H](O)C[C@@H]2[C@@]4(C)CC[C@H](OC(=O)Nc5cccc(F)c5)C(C)(C)[C@@H]4CC[C@]23C)O1`, the Activity turned out to be 65.25%.

As for `COc1ccc(-n2cc(C(=O)O[C@H]3CC[C@]4(C)[C@H]5C[C@@H](O)[C@@H]6[C@@H]([C@@]7(C)CCCC(C)(C)O7)CC[C@@]6(C)[C@]5(C)CC[C@H]4C3(C)C)nn2)cc1`, the Activity is 52.37%.

As to `CC1(C)CCC[C@](C)([C@H]2CC[C@]3(C)[C@@H]2[C@H](O)C[C@@H]2[C@@]4(C)CC[C@H](OC(=O)CN5CCOCC5)C(C)(C)[C@@H]4CC[C@]23C)O1.Cl`, the Activity came out at 23.96%.

Take `COc1ccc(OP(=O)(Oc2ccc(OC)cc2)O[C@H]2CC[C@]3(C)[C@H]4C[C@@H](O)[C@@H]5[C@@H]([C@@]6(C)CCCC(C)(C)O6)CC[C@@]5(C)[C@]4(C)CC[C@H]3C2(C)C)cc1`: the Activity was 57.15%.

Consider `COC(=O)[C@H](NC(=O)CCC(=O)O[C@H]1CC[C@]2(C)[C@H]3C[C@@H](O)[C@@H]4[C@@H]([C@@]5(C)CCCC(C)(C)O5)CC[C@@]4(C)[C@]3(C)CC[C@H]2C1(C)C)C(C)C`, for which the Activity is on record as 25.34%.

Regarding `CC1(C)CCC[C@](C)([C@H]2CC[C@]3(C)[C@@H]2[C@H](O)C[C@@H]2[C@@]4(C)CC[C@H](OC(=O)Nc5ccc(F)cc5)C(C)(C)[C@@H]4CC[C@]23C)O1`, the Activity stood at 67.4%.

Consider `CC1(C)CCC[C@](C)([C@H]2CC[C@]3(C)[C@@H]2[C@H](O)C[C@@H]2[C@@]4(C)CC[C@H](OC(=O)NC5CCCCC5)C(C)(C)[C@@H]4CC[C@]23C)O1`, for which the Activity came to 66.39%.
